Common to all, as to type: cell-based
What all share (conditions): CreLuc reporter gene assay
(In general: Reporter assays use an easily measured gene product as a stand-in for the process of interest.)

One experiment addresses T1, hGLP1R (Homo sapiens, UniProt P43220).
T1 construct: expressed in transfected cells; host or cells: HEK-293 cells carrying a CRE-luciferase reporter gene
Kind of experiment: hGLP1R CreLuc reporter gene assay in 0.5% and 100% plasma. The essentials: (§1)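 HEK-293 cells co-expressing GLP-1 or NPY2 receptor and CHO cells expressing GIP receptor, each carrying a CRE-driven luciferase reporter, were stimulated with peptides for 4 hours at 37 °C. Luminescence was read after Bright-Glo addition. EC50 came from 8-point, four-decade curves fitted by variable-slope non-linear regression.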

The target in another experiment is T2, hGIPR (Homo sapiens, UniProt P48546).
T2 construct: expressed in transfected cells; host or cells: CHO cells carrying a CRE-luciferase reporter gene
T2 sequence (P48546 22-466): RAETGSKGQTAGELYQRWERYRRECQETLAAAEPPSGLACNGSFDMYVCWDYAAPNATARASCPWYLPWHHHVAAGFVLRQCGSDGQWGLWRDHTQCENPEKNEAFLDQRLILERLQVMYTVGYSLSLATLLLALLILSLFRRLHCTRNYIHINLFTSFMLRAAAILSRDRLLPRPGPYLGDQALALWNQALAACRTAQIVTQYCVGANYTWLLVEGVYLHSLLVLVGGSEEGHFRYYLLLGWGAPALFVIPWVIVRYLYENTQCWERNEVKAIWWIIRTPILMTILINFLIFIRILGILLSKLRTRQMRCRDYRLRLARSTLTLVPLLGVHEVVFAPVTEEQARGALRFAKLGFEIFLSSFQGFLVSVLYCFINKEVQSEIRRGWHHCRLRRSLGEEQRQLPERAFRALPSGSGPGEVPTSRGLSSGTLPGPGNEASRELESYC
Kind of experiment: hGIPR CreLuc reporter gene assay in 0.5% and 100% plasma. The essentials:
as §1

In the next experiment the target is T3, hNPY2R (Homo sapiens, UniProt P49146).
T3 construct: expressed in transfected cells; host or cells: HEK-293 cells carrying a CRE-luciferase reporter gene
T3 sequence (P49146 1-381): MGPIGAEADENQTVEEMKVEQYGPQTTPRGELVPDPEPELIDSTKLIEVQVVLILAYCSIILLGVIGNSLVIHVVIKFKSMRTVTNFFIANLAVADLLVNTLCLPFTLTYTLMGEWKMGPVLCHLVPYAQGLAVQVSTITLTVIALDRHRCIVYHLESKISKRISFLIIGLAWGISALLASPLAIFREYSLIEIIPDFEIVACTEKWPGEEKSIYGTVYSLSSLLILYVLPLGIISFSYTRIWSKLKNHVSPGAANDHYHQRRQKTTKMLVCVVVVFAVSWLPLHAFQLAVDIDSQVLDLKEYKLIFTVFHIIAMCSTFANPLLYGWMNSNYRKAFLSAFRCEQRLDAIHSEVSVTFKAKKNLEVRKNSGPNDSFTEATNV
Kind of experiment: hNPY2R CreLuc reporter gene assay in 0.5% and 100% plasma. In a few lines:
as §1

Setting [1] is: 0.5% human plasma, read-out: hGLP1R 0.5% hP.
[2] abbreviates: 0.5% human plasma, read-out: hGIPR 0.5% hP.
The mark [3] stands for this setting: 100% human plasma, read-out: hGIPR 100% hP.
Setting [4] is: 0.5% human plasma, read-out: hNPY2R 0.5% hP.
The mark [5] stands for this setting: 100% human plasma, read-out: hNPY2R 100% hP.
The mark [6] stands for this setting: 100% human plasma, read-out: hGLP1R 100% hP.

Read-outs that look alike come from different tables or passages of the source. Starred links: 1 amine or outer side, 2 acyl side, 3 side chain; linkers in the order of their positions; H or OH if unused. Non-standard residues stand in square brackets, D forms with d. Groups on a side chain read outwards from the residue. No end group written: not given here. *: point of attachment. C20 diacid = O=C(O)CCCCCCCCCCCCCCCCCCC(=O)*; C18 diacid = O=C(O)CCCCCCCCCCCCCCCCC(=O)*; γGlu = O=C(O)[C@H](CCC(=O)[*:2])N[*:1]; εLys = N[C@@H](CCCCN[*:1])C(=O)[*:2]; AEEA = NCCOCCOCC(=O)O; Aib = CC(C)(N)C(=O)O; Ahx = NCCCCCC(=O)O

T1 sequence (P43220 24-463): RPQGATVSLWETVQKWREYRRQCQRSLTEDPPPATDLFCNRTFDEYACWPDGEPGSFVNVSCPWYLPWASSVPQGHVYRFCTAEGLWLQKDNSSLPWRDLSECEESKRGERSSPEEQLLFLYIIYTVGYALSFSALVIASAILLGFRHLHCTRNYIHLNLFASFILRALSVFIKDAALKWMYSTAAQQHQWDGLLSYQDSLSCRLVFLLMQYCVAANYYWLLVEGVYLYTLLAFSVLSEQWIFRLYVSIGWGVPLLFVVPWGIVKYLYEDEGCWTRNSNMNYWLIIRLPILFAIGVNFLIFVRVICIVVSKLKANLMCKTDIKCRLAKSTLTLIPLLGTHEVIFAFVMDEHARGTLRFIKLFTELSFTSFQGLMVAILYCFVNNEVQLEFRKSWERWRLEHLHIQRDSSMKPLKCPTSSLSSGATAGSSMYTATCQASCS

As to “H-Y[Aib]EGTFTSDYSI[Aib]LEKQAQ[Aib]AFVEWLIK([εLys-γGlu-γGlu-γGlu-γGlu-γGlu-γGlu-γGlu-C20 diacid])GGPSEGASLRHYYNWLTRQRY-NH2 [Compound 288, Y-Aib-E-G-T-F-T-S-D-Y-S-I-Aib-L-E-K-Q-A-Q-Aib-A-F-V-E-W-L-I-K(1,3)-GGPSEGASLRHYYNWLTRQRY-NH2.C20DA-gGlu-gGlu-gGlu-gGlu-gGlu-gGlu-gGlu-eLys(1,2)]”, the EC50 at hGLP1R (setting [1]) was 0.17 nM; at hGIPR (setting [2]), 0.51 nM; on hGIPR (setting [3]), 2.43 nM; at hNPY2R (setting [4]), 14.3 nM; at hNPY2R (setting [5]), 36.8 nM.
On to “H-Y[Aib]EGTFTSDYSI[Aib]LEKAAQ[Aib]AFVEWLIK([εLys-γGlu-γGlu-γGlu-γGlu-γGlu-γGlu-C20 diacid])GGPSSGASLRHYYNWLTRQRY-NH2 [Compound 136, Y-Aib-E-G-T-F-T-S-D-Y-S-I-Aib-L-E-K-A-A-Q-Aib-A-F-V-E-W-L-I-K(1,3)-GGPSSGASLRHYYNWLTRQRY-NH2.C20DA-gGlu-gGlu-gGlu-gGlu-gGlu-gGlu-eLys(1,2)]”, for which the EC50 on hGLP1R (setting [1]) was 0.32 nM; at hGIPR (setting [2]), 0.31 nM; on hGIPR (setting [3]), 2.03 nM; at hNPY2R (setting [4]) it was 15.1 nM; on hNPY2R (setting [5]), 64.7 nM.
With `CC[C@H](C)[C@H](NC(=O)[C@H](CC(C)C)NC(=O)[C@H](Cc1c[nH]c2ccccc12)NC(=O)[C@H](CCC(=O)O)NC(=O)[C@@H](NC(=O)[C@H](Cc1ccccc1)NC(=O)[C@H](C)NC(=O)C(C)(C)NC(=O)[C@H](CCC(N)=O)NC(=O)[C@H](C)NC(=O)[C@H](CCC(N)=O)NC(=O)[C@H](CCCCN)NC(=O)[C@H](CCC(=O)O)NC(=O)[C@H](CC(C)C)NC(=O)C(C)(C)NC(=O)[C@@H](NC(=O)[C@H](CO)NC(=O)[C@H](Cc1ccc(O)cc1)NC(=O)[C@H](CC(=O)O)NC(=O)[C@H](CO)NC(=O)[C@@H](NC(=O)[C@H](Cc1ccccc1)NC(=O)[C@@H](NC(=O)CNC(=O)[C@H](CCC(=O)O)NC(=O)C(C)(C)NC(=O)[C@@H](N)Cc1ccc(O)cc1)[C@@H](C)O)[C@@H](C)O)[C@@H](C)CC)C(C)C)C(=O)N[C@@H](CCCCNC(=O)[C@@H](N)CCCCNC(=O)CC[C@H](NC(=O)CC[C@H](NC(=O)CC[C@H](NC(=O)CC[C@H](NC(=O)CC[C@H](NC(=O)CC[C@H](NC(=O)CCCCCCCCCCCCCCCCCCC(=O)O)C(=O)O)C(=O)O)C(=O)O)C(=O)O)C(=O)O)C(=O)O)C(=O)NCC(=O)NCC(=O)N1CCC[C@H]1C(=O)N[C@@H](CO)C(=O)N[C@@H](CO)C(=O)NCC(=O)N[C@@H](C)C(=O)N[C@@H](CO)C(=O)N[C@H](C(=O)N[C@@H](CCCNC(=N)N)C(=O)N[C@@H](Cc1c[nH]cn1)C(=O)N[C@@H](Cc1ccc(O)cc1)C(=O)N[C@@H](Cc1ccc(O)cc1)C(=O)N[C@@H](CC(N)=O)C(=O)N[C@@H](Cc1c[nH]c2ccccc12)C(=O)N[C@@H](CC(C)C)C(=O)N[C@H](C(=O)N[C@@H](CCCNC(=N)N)C(=O)N[C@@H](CCC(N)=O)C(=O)N[C@@H](CCCNC(=N)N)C(=O)N[C@@H](Cc1ccc(O)cc1)C(N)=O)[C@@H](C)O)C(C)(C)C` [Compound 103, Y-Aib-E-G-T-F-T-S-D-Y-S-I-Aib-L-E-K-Q-A-Q-Aib-A-F-V-E-W-L-I-K(1,3)-G-G-P-S-S-G-A-S-Tle-R-H-Y-Y-N-W-L-T-R-Q-R-Y-NH2.C20DA-gGlu-gGlu-gGlu-gGlu-gGlu-gGlu-eLys(1,2)], the EC50 on hGLP1R (hGLP1R 0.5% hP, 0.5% human plasma) turned out to be 0.13 nM; on hGIPR (hGIPR 0.5% hP, 0.5% human plasma) it was 0.26 nM; on hNPY2R (hNPY2R 100% hP, 100% human plasma), 50.7 nM.
As to “H-Y[Aib]EGTFTSDYSI[Aib]LEKQAQ[Aib]AFVEWLIK([Ahx-γGlu-γGlu-γGlu-γGlu-γGlu-C18 diacid])GGPSSGASLRHYYNWLTRQRY-NH2 [Compound 260, Y-Aib-E-G-T-F-T-S-D-Y-S-I-Aib-L-E-K-Q-A-Q-Aib-A-F-V-E-W-L-I-K(1,3)-GGPSSGASLRHYYNWLTRQRY-NH2.C18DA-gGlu-gGlu-gGlu-gGlu-gGlu-AHX(1,2)]”, the EC50 came out at 0.13 nM on hGLP1R (setting [1]), 0.31 nM on hGIPR (setting [2]) and 26.4 nM on hNPY2R (setting [4]).
Regarding “H-Y[Aib]EGTFTSDYSI[Aib]LEKQAQ[Aib]AFVEWLIK([AEEA-AEEA-γGlu-γGlu-γGlu-γGlu-C18 diacid])GGPESGASLRHYYNWLTRQRY-NH2 [Compound 163, Y-Aib-E-G-T-F-T-S-D-Y-S-I-Aib-L-E-K-Q-A-Q-Aib-A-F-V-E-W-L-I-K(1,3)-GGPESGASLRHYYNWLTRQRY-NH2.C18DA-gGlu-gGlu-gGlu-gGlu-OEG-OEG(1,2)]”, the EC50 at hGLP1R (setting [1]) came to 0.1 nM; at hGIPR (setting [2]), 0.26 nM; on hGIPR (setting [3]) it was 0.87 nM; on hNPY2R (setting [4]), 21.3 nM; on hNPY2R (setting [5]), 55.2 nM.
Turning to “H-Y[Aib]EGTFTSDYSI[Aib]LEKQAQ[Aib]EFVEWLIK([AEEA-AEEA-γGlu-γGlu-γGlu-γGlu-C18 diacid])GGPSSPASLRHYYNWLTRQRY-NH2 [Compound 56, Y-Aib-E-G-T-F-T-S-D-Y-S-I-Aib-L-E-K-Q-A-Q-Aib-E-F-V-E-W-L-I-K(1,3)-GGPSSPASLRHYYNWLTRQRY-NH2.C18DA-gGlu-gGlu-gGlu-gGlu-OEG-OEG(1,2)]”, the EC50 was 0.25 nM on hGLP1R (setting [1]); 8.97 nM at hGLP1R (setting [6]); 0.27 nM at hGIPR (setting [2]); 27.3 nM on hNPY2R (setting [4]); 48.8 nM on hNPY2R (setting [5]).
On to “H-Y[Aib]EGTFTSDYSI[Aib]LEKQAQ[Aib]EFVEWLIK([εLys-γGlu-γGlu-γGlu-γGlu-γGlu-γGlu-γGlu-C20 diacid])GGPSSGASLRHYYNWLTRQRY-NH2 [Compound 88, Y-Aib-E-G-T-F-T-S-D-Y-S-I-Aib-L-E-K-Q-A-Q-Aib-E-F-V-E-W-L-I-K(1,3)-GGPSSGASLRHYYNWLTRQRY-NH2.C20DA-gGlu-gGlu-gGlu-gGlu-gGlu-gGlu-gGlu-eLys(1,2)]”, for which the EC50 at hGLP1R (setting [6]) was found to be 7.18 nM; at hGIPR (setting [2]), 0.53 nM; at hGIPR (setting [3]) it was 1.58 nM; at hNPY2R (setting [5]), 45.4 nM.
Take “H-Y[Aib]EGTFTSDYSI[Aib]LEKQAQ[Aib]EFVQWLIK([εLys-γGlu-γGlu-γGlu-γGlu-γGlu-γGlu-C18 diacid])GGPSEGASLRHYYNWLTRQRY-NH2 [Compound 153, Y-Aib-E-G-T-F-T-S-D-Y-S-I-Aib-L-E-K-Q-A-Q-Aib-E-F-V-Q-W-L-I-K(1,3)-GGPSEGASLRHYYNWLTRQRY-NH2.C18DA-gGlu-gGlu-gGlu-gGlu-gGlu-gGlu-eLys(1,2)]”: the EC50 was 0.25 nM at hGLP1R (setting [1]); 0.22 nM at hGIPR (setting [2]); 1.21 nM at hGIPR (setting [3]); 18.9 nM at hNPY2R (setting [4]); 58.5 nM on hNPY2R (setting [5]).
As for “Y[Aib]EGTFTSDYSI[Aib]LEKQAQ[Aib]AFVEWLIK([εLys-γGlu-γGlu-γGlu-γGlu-γGlu-C20 diacid])GGPESPASLRHYYNWLTRQRY-NH2 [Compound 70, Y-Aib-E-G-T-F-T-S-D-Y-S-I-Aib-L-E-K-Q-A-Q-Aib-A-F-V-E-W-L-I-K(1,3)-GGPESPASLRHYYNWLTRQRY-NH2.C20DA-gGlu-gGlu-gGlu-gGlu-gGlu-eLys(1,2)]”, the EC50 at hGLP1R (setting [1]) is 0.3 nM; on hGIPR (setting [2]), 0.28 nM; at hGIPR (setting [3]), 2.62 nM; at hNPY2R (setting [4]), 16.2 nM.
As for “H-Y[Aib]EGTFTSDYSI[Aib]LEKQAQ[Aib]AFVQWLIK([AEEA-AEEA-γGlu-γGlu-γGlu-γGlu-C18 diacid])GGPSEGASLRHYYNWLTRQRY-NH2 [Compound 270, Y-Aib-E-G-T-F-T-S-D-Y-S-I-Aib-L-E-K-Q-A-Q-Aib-A-F-V-Q-W-L-I-K(1,3)-GGPSEGASLRHYYNWLTRQRY-NH2.C18DA-gGlu-gGlu-gGlu-gGlu-OEG-OEG(1,2)]”, the EC50 at hGLP1R (setting [1]) is 0.07 nM; at hGLP1R (setting [6]) it was 1.69 nM; on hGIPR (setting [2]) it was 0.12 nM; at hGIPR (setting [3]), 0.71 nM; on hNPY2R (setting [5]), 21.1 nM.

The record behind these values is patent US20240247080A1, “GLP1/GIP/NPY2 RECEPTOR TRIPLE AGONISTS” (Boehringer Ingelheim International GmbH, priority 2022, published 2024).
